In ChEMBL document CHEMBL3885861, “Open TG-GATES”:

Organism: Rattus norvegicus
Experiment: Open TG-GATES - Regimen: Single
Format: toxicity, organism-based, Sprague-Dawley
Design: regimen Single, gender Male, age 6 weeks
Settings: in vivo, po, 300 mg/kg, route gavage, dose level Middle; for APTT / Bas / Eos / Fbg / Hb / Ht / Lym / MCH / MCHC / MCV / Mono / Neu / PT / Plat / RBC / Ret / WBC: tissue Blood; for KIDNEY_L / KIDNEY_R / KIDNEY_TOTAL: tissue Kidney; for LIVER: tissue Liver; for A/G / ALP / ALT / AST / BUN / CRE / Ca / Cl / DBIL / GLC / IP / K / LDH / Na / PL / RALB / TBIL / TC / TG / TP / gamma-GTP: tissue Plasma

C[C@H]1O[C@H](O[C@H]2[C@H](O)[C@@H](O)[C@@H](O[C@H]3[C@H](O)[C@@H](O)C(O)O[C@@H]3CO)O[C@@H]2CO)[C@H](O)[C@@H](O)[C@@H]1N[C@H]1C=C(CO)[C@@H](O)[C@H](O)[C@H]1O (some centres not stated) [ACARBOSE]
TERMINAL_BW (3 h): 199.8 g | APTT (3 h): 16.9 s | Bas (3 h): 0% | Eos (3 h): 0.8% | Fbg (3 h): 290.6 mg/dL | Hb (3 h): 13.5 g/dL | Ht (3 h): 41.4% | Lym (3 h): 77.8% | MCH (3 h): 21.2 pg | MCHC (3 h): 32.6% | MCV (3 h): 65.1 fL | Mono (3 h): 2.8% | Neu (3 h): 17.8% | PT (3 h): 13.4 s | Plat (3 h): 115.1 x10_4/uL | RBC (3 h): 636 x10_4/ul | Ret (3 h): 8.7% | WBC (3 h): 82.6 x10_2/uL | KIDNEY_L (3 h): 0.9 g | KIDNEY_R (3 h): 0.9 g | KIDNEY_TOTAL (3 h): 1.9 g | LIVER (3 h): 9 g | A/G (3 h): 0.9 | ALP (3 h): 1420.8 IU/L | ALT (3 h): 35.6 IU/L | AST (3 h): 75.4 IU/L | BUN (3 h): 9.8 mg/dL | CRE (3 h): 0.2 mg/dL | Ca (3 h): 10.9 mg/dL | Cl (3 h): 104.6 meq/L | DBIL (3 h): 0.004 mg/dL | GLC (3 h): 172.4 mg/dL | IP (3 h): 10 mg/dL | K (3 h): 4 meq/L | LDH (3 h): 67.8 IU/L | Na (3 h): 141.2 meq/L | PL (3 h): 140 mg/dL | RALB (3 h): 2.5 g/dL | TBIL (3 h): 0.066 mg/dL | TC (3 h): 79.8 mg/dL | TG (3 h): 51.6 mg/dL | TP (3 h): 5.2 g/dL | gamma-GTP (3 h): 1.2 IU/L | TERMINAL_BW (6 h): 198.7 g | APTT (6 h): 17 s | Bas (6 h): 0% | Eos (6 h): 0.8% | Fbg (6 h): 290.6 mg/dL | Hb (6 h): 13.2 g/dL | Ht (6 h): 40.6% | Lym (6 h): 75.8% | MCH (6 h): 20.8 pg | MCHC (6 h): 32.4% | MCV (6 h): 64 fL | Mono (6 h): 3% | Neu (6 h): 19.6% | PT (6 h): 13.5 s | Plat (6 h): 124.8 x10_4/uL | RBC (6 h): 635 x10_4/ul | Ret (6 h): 8.7% | WBC (6 h): 86.3 x10_2/uL | KIDNEY_L (6 h): 0.9 g | KIDNEY_R (6 h): 0.9 g | KIDNEY_TOTAL (6 h): 1.8 g | LIVER (6 h): 8.2 g | A/G (6 h): 0.9 | ALP (6 h): 1441 IU/L | ALT (6 h): 35 IU/L | AST (6 h): 70 IU/L | BUN (6 h): 9.6 mg/dL | CRE (6 h): 0.2 mg/dL | Ca (6 h): 10.8 mg/dL | Cl (6 h): 104 meq/L | DBIL (6 h): 0.004 mg/dL | GLC (6 h): 160.4 mg/dL | IP (6 h): 10.5 mg/dL | K (6 h): 4 meq/L | LDH (6 h): 57 IU/L | Na (6 h): 141.4 meq/L | PL (6 h): 133.6 mg/dL | RALB (6 h): 2.5 g/dL | TBIL (6 h): 0.058 mg/dL | TC (6 h): 71 mg/dL | TG (6 h): 38.6 mg/dL | TP (6 h): 5.2 g/dL | gamma-GTP (6 h): 1 IU/L | TERMINAL_BW (9 h): 195.2 g | APTT (9 h): 17 s | Bas (9 h): 0.4% | Eos (9 h): 0.8% | Fbg (9 h): 292.8 mg/dL | Hb (9 h): 13.5 g/dL | Ht (9 h): 42% | Lym (9 h): 80.4% | MCH (9 h): 20.7 pg | MCHC (9 h): 32% | MCV (9 h): 64.8 fL | Mono (9 h): 2.2% | Neu (9 h): 15.6% | PT (9 h): 13.4 s | Plat (9 h): 119.8 x10_4/uL | RBC (9 h): 650.2 x10_4/ul | Ret (9 h): 8.7% | WBC (9 h): 84.7 x10_2/uL | KIDNEY_L (9 h): 1 g | KIDNEY_R (9 h): 0.9 g | KIDNEY_TOTAL (9 h): 1.9 g | LIVER (9 h): 7.7 g | A/G (9 h): 0.9 | ALP (9 h): 1353.2 IU/L | ALT (9 h): 36.8 IU/L | AST (9 h): 76 IU/L | BUN (9 h): 8.6 mg/dL | CRE (9 h): 0.2 mg/dL | Ca (9 h): 10.3 mg/dL | Cl (9 h): 105.4 meq/L | DBIL (9 h): 0 mg/dL | GLC (9 h): 169.8 mg/dL | IP (9 h): 10.7 mg/dL | K (9 h): 3.8 meq/L | LDH (9 h): 61 IU/L | Na (9 h): 141.4 meq/L | PL (9 h): 131.4 mg/dL | RALB (9 h): 2.4 g/dL | TBIL (9 h): 0.06 mg/dL | TC (9 h): 77 mg/dL | TG (9 h): 36.2 mg/dL | TP (9 h): 5.2 g/dL | gamma-GTP (9 h): 1.2 IU/L | TERMINAL_BW (24 h): 210.8 g | APTT (24 h): 17.1 s | Bas (24 h): 0% | Eos (24 h): 1% | Fbg (24 h): 248.4 mg/dL | Hb (24 h): 13.1 g/dL | Ht (24 h): 40.2% | Lym (24 h): 76% | MCH (24 h): 21.3 pg | MCHC (24 h): 32.6% | MCV (24 h): 65.2 fL | Mono (24 h): 3.4% | Neu (24 h): 18.8% | PT (24 h): 13.3 s | Plat (24 h): 121 x10_4/uL | RBC (24 h): 617.4 x10_4/ul | Ret (24 h): 7.8% | WBC (24 h): 102.2 x10_2/uL | KIDNEY_L (24 h): 0.9 g | KIDNEY_R (24 h): 0.9 g | KIDNEY_TOTAL (24 h): 1.8 g | LIVER (24 h): 9.9 g | A/G (24 h): 0.9 | ALP (24 h): 1736 IU/L | ALT (24 h): 42.2 IU/L | AST (24 h): 71.8 IU/L | BUN (24 h): 13.4 mg/dL | CRE (24 h): 0.2 mg/dL | Ca (24 h): 10.9 mg/dL | Cl (24 h): 104.8 meq/L | DBIL (24 h): 0.012 mg/dL | GLC (24 h): 176.4 mg/dL | IP (24 h): 8 mg/dL | K (24 h): 3.9 meq/L | LDH (24 h): 60.6 IU/L | Na (24 h): 142.6 meq/L | PL (24 h): 134.8 mg/dL | RALB (24 h): 2.6 g/dL | TBIL (24 h): 0.062 mg/dL | TC (24 h): 71.2 mg/dL | TG (24 h): 74 mg/dL | TP (24 h): 5.4 g/dL | gamma-GTP (24 h): 1 IU/L
